Data published in paper PMC8962514 (ACS infectious diseases, 2022).
≈ marks a conversion by molar mass, not a printed value. Non-standard residues stand in square brackets, D forms with d. Residues, ends and D or L forms follow the SMILES beside them. Nspe = C[C@H](NCC(=O)O)c1ccccc1; NDecylGly = CCCCCCCCCCNCC(=O)O; Nlys = NCCCCNCC(=O)O

Columns and labels:
[1] = tested on: E. faecium #2-1; format: cell-based, Enterococcus faecium; details: #2-1, 16 h
[2] = tested on: S. aureus USA300 LAC; format: cell-based, Staphylococcus aureus; details: USA300, 16 h
[3] = tested on: K. pneumoniae KPLN649; format: cell-based, Klebsiella pneumoniae; details: KPLN649, 16 h
[4] = tested on: A. baumannii AB5075; format: cell-based, Acinetobacter baumannii; details: AB5075, 16 h
[5] = tested on: P. aeruginosa LESB58; format: cell-based, Pseudomonas aeruginosa; details: LESB58, 16 h
[6] = tested on: E. cloacae 218R1; format: cell-based, Enterobacter cloacae; details: 218R1, 16 h
[7] = tested on: S. aureus biofilm; experiment: Minimal biofilm inhibition; format: cell-based, Staphylococcus aureus; details: 1.56 μg/mL peptoid, relative to PBS, n = 3
[8] = tested on: K. pneumoniae biofilm; experiment: Minimal biofilm inhibition; format: cell-based, Klebsiella pneumoniae; details: 1.56 μg/mL peptoid, relative to PBS, n = 3
[9] = tested on: P. aeruginosa biofilm; experiment: Minimal biofilm inhibition; format: cell-based, Pseudomonas aeruginosa; details: 1.56 μg/mL peptoid, relative to PBS, n = 3
[10] = tested on: E. cloacae biofilm; experiment: Minimal biofilm inhibition; format: cell-based, Enterobacter cloacae; details: 1.56 μg/mL peptoid, relative to PBS, n = 3
[11] = tested on: S. aureus pre-formed biofilm; experiment: Minimal biofilm eradication; format: cell-based, Staphylococcus aureus; details: 12.5 μg/ml peptoid (Figure 4 legend; 6.25 μg/mL), relative to PBS, n = 3
[12] = tested on: K. pneumoniae pre-formed biofilm; experiment: Minimal biofilm eradication; format: cell-based, Klebsiella pneumoniae; details: 12.5 μg/ml peptoid (Figure 4 legend; 6.25 μg/mL), relative to PBS, n = 3
[13] = tested on: A. baumannii pre-formed biofilm; experiment: Minimal biofilm eradication; format: cell-based, Acinetobacter baumannii; details: 6.25 μg/ml peptoid, relative to PBS, n = 3
[14] = tested on: P. aeruginosa LESB58 biofilm; experiment: Biofilm eradication under host-mimicking conditions, monomicrobial; format: cell-based, Pseudomonas aeruginosa; details: 31.25 μg/mL peptoid, DMEM-FBS-G, n = 3
[15] = tested on: S. aureus USA300 LAC; experiment: Subcutaneous abscess infection model; format: in vivo, mice; details: 1.25 mg/kg for TM8, vs PBS
[16] = Self-assembly in aqueous solution by small angle X-ray scattering; format: physicochemical
[17] = In vivo toxicity / maximum tolerated dose; details: mice, Table S3

CCCCCCCCCCNCC(=O)N(CCCCN)CC(=O)N(CC(=O)N(CC(=O)N(CCCCN)CC(=O)N(CC(=O)N(CC(N)=O)[C@@H](C)c1ccccc1)[C@@H](C)c1ccccc1)[C@@H](C)c1ccccc1)[C@@H](C)c1ccccc1 [TM8] (H-[NDecylGly][Nlys][Nspe][Nspe][Nlys][Nspe][Nspe]-NH2)
Minimum inhibitory concentration (MIC) [1]: 0.78 µg/mL (≈ 0.699 µM)
Minimum inhibitory concentration (MIC) [2]: 3.13 µg/mL (≈ 2.81 µM)
Minimum inhibitory concentration (MIC) [3]: 12.5 µg/mL (≈ 11.2 µM)
Minimum inhibitory concentration (MIC) [4]: 3.13 µg/mL (≈ 2.81 µM)
Minimum inhibitory concentration (MIC) [5]: 6.25 µg/mL (≈ 5.6 µM)
Minimum inhibitory concentration (MIC) [6]: 12.5 µg/mL (≈ 11.2 µM)
Inhibition of biofilm formation (CV staining) [7]: inhibited biofilm formation
Inhibition of biofilm formation (CV staining) [8]: inhibited biofilm formation
Inhibition of biofilm formation (CV staining) [9]: inhibited biofilm formation
Inhibition of biofilm formation (CV staining) [10]: inhibited biofilm formation
Reduction of biomass of pre-formed biofilm (CV staining) [11]: impacted
Reduction of biomass of pre-formed biofilm (CV staining) [12]: impacted
Reduction of biofilm metabolic activity (TTC reduction) [13]: metabolic activity was reduced
Reduction of P. aeruginosa bacterial numbers in biofilm (CFU) [14]: 1,000 fold
Effect on S. aureus abscess size and bacterial burden, in words [15]: insignificantly reduced
Eccentricity (ε) of ellipsoidal micelles ([16]; SAXS model analysis): 1.9
Rcore of ellipsoidal micelles ([16]; SAXS model analysis): 10 Å
dR (shell) of ellipsoidal micelles ([16]; SAXS model analysis): 9 Å
Aggregation number of ellipsoidal micellar assemblies ([16]; SAXS, on average): ~103 peptoids
Fraction of larger aggregates ([16]; SAXS, upturn at low Q, 4mM, 20°C): ~ 0.08%
Self-assembled structure (SAXS best fit) ([16]; aqueous solution, peptoids 4mM, 20°C, theoretical model analysis): ellipsoidal micellar assemblies
Maximum tolerated dose [17]: 1.25 mg/kg
